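Values below derive from 48-hour exposures of cells grown in 96-well plates, with endpoints linearly interpolated between the two concentrations bracketing the appropriate inhibition level. GI50 marks 50% less growth.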 Calls of active or inactive are those of the source. No stated cut-off is given here; in the data, active = GI50 up to about 1.1 µM and inactive = higher.
Columns and labels:
Assay in all cases: growth of human tumour cells (NCI), 48 h
OVCAR-5 = system: OVCAR-5
HL-60 = system: HL-60
A498 = system: A498
SN12C = system: SN12C
MCF7 = system: MCF7
KM12 = system: KM12
ACHN = system: ACHN
SK-OV-3 = system: SK-OV-3
CAKI-1 = system: CAKI-1
OVCAR-8 = system: OVCAR-8
SF-268 = system: SF-268
SR = system: SR
UACC-62 = system: UACC-62
SF-295 = system: SF-295
HT-29 = system: HT-29
M14 = system: M14
SK-MEL-5 = system: SK-MEL-5
NCI-H460 = system: NCI-H460
SK-MEL-28 = system: SK-MEL-28
NCI/ADR-RES = system: NCI/ADR-RES

Measured: GI50

CCN(CC)CC1CCCCN1CC(=O)N1c2ccc(Br)cc2C(=O)Nc2cccnc21 (centres undefined)
inactive: OVCAR-5 > 100 µM | HL-60 > 100 µM | A498 > 100 µM | SN12C > 100 µM | MCF7 > 100 µM | KM12 > 100 µM | ACHN > 100 µM | SK-OV-3 > 100 µM | CAKI-1 > 100 µM | OVCAR-8 > 100 µM | SF-268 > 100 µM | SR 57 µM | UACC-62 > 100 µM | SF-295 > 100 µM | HT-29 > 100 µM | M14 > 100 µM | SK-MEL-5 > 100 µM | NCI-H460 > 100 µM | SK-MEL-28 > 100 µM

c1ccc2c(c1)SC1=C(SC(=C3SC4=C(S3)Sc3ccccc3S4)S1)S2
inactive: OVCAR-5 > 100 µM | HL-60 > 100 µM | NCI/ADR-RES > 100 µM | SN12C > 100 µM | MCF7 > 100 µM | KM12 > 100 µM | ACHN > 100 µM | CAKI-1 > 100 µM | OVCAR-8 > 100 µM | SF-268 > 100 µM | UACC-62 > 100 µM | SF-295 > 100 µM | HT-29 > 100 µM | M14 > 100 µM | SK-MEL-5 > 100 µM | NCI-H460 > 100 µM | SK-MEL-28 > 100 µM

C=CCON(C(=O)OC(C)(C)C)C(C)(C)C
inactive: OVCAR-5 > 100 µM | HL-60 > 100 µM | A498 > 100 µM | NCI/ADR-RES > 100 µM | KM12 > 100 µM | ACHN > 100 µM | SK-OV-3 > 100 µM | CAKI-1 > 100 µM | OVCAR-8 > 100 µM | SF-268 > 100 µM | SR > 100 µM | UACC-62 > 100 µM | SF-295 > 100 µM | HT-29 > 100 µM | M14 > 100 µM | SK-MEL-5 > 100 µM | NCI-H460 > 100 µM | SK-MEL-28 > 100 µM

Cc1cc2ncn(C3CCCCO3)c2cc1C (centres undefined)
inactive: OVCAR-5 > 100 µM | HL-60 > 100 µM | NCI/ADR-RES > 100 µM | SN12C > 100 µM | MCF7 > 100 µM | KM12 35.5 µM | ACHN > 100 µM | SK-OV-3 > 100 µM | CAKI-1 > 100 µM | OVCAR-8 > 100 µM | SF-268 > 100 µM | UACC-62 > 100 µM | SF-295 > 100 µM | HT-29 > 100 µM | M14 > 100 µM | SK-MEL-5 > 100 µM | SK-MEL-28 > 100 µM

NNC(=O)c1nn[nH]c1SSc1[nH]nnc1C(=O)NN
inactive: OVCAR-5 > 100 µM | HL-60 > 100 µM | NCI/ADR-RES > 100 µM | SN12C > 100 µM | MCF7 > 100 µM | KM12 > 100 µM | ACHN > 100 µM | SK-OV-3 > 100 µM | CAKI-1 > 100 µM | OVCAR-8 > 100 µM | SF-268 > 100 µM | UACC-62 > 100 µM | SF-295 > 100 µM | HT-29 > 100 µM | M14 > 100 µM | SK-MEL-5 > 100 µM | NCI-H460 > 100 µM | SK-MEL-28 > 100 µM

N/N=C(/Cc1nc2ccc(C(=O)c3ccccc3)cc2nc1O)C(=O)Nc1ccc([N+](=O)[O-])cc1[N+](=O)[O-]
inactive: OVCAR-5 > 10 µM | HL-60 > 10 µM | A498 > 10 µM | SN12C > 10 µM | KM12 > 100 µM | ACHN > 10 µM | SK-OV-3 55.7 µM | CAKI-1 > 100 µM | OVCAR-8 81.8 µM | SF-268 > 10 µM | SR > 10 µM | UACC-62 49 µM | SF-295 > 10 µM | HT-29 > 10 µM | M14 > 10 µM | SK-MEL-5 86.7 µM | NCI-H460 > 10 µM | SK-MEL-28 > 10 µM

CCCOC(=O)c1cc(C(=CCC[C@H]2CC[C@@]3(C)[C@@H](CC[C@@H]4[C@@H]3CC[C@]3(C)[C@@H](C(C)CCCC(C)C)CC[C@@H]43)C2)c2cc(Cl)c(O)c(C(=O)OCCC)c2)cc(Cl)c1O (some centres undefined)
inactive: HL-60 > 50 µM | A498 > 50 µM | NCI/ADR-RES > 50 µM | SN12C > 50 µM | KM12 > 50 µM | CAKI-1 > 50 µM | OVCAR-8 > 50 µM | SF-268 > 50 µM | UACC-62 > 50 µM | HT-29 > 50 µM | SK-MEL-5 > 50 µM | NCI-H460 > 50 µM

CCC(O)C1Cc2c(C)cc3c(c2O1)C(=O)c1ccccc1C3=O (centres undefined)
inactive: OVCAR-5 72.3 µM | HL-60 17.9 µM | A498 18 µM | SN12C 35.3 µM | KM12 25.8 µM | ACHN 27.8 µM | SK-OV-3 22.6 µM | CAKI-1 24.5 µM | OVCAR-8 32.4 µM | SF-268 25.1 µM | SR 33.5 µM | UACC-62 28.8 µM | SF-295 29.6 µM | HT-29 39.4 µM | M14 40.1 µM | SK-MEL-5 44.7 µM | NCI-H460 27.3 µM | SK-MEL-28 49.2 µM

CCOc1ncn(-c2ccc(NC(=S)NC3OC(CO)C(O)C(O)C3O)cc2)n1 (centres undefined)
inactive: OVCAR-5 > 100 µM | HL-60 > 100 µM | SN12C > 100 µM | MCF7 > 100 µM | KM12 > 100 µM | SK-OV-3 > 100 µM | OVCAR-8 > 100 µM | SF-268 > 100 µM | SR > 100 µM | UACC-62 > 100 µM | SF-295 > 100 µM | HT-29 > 100 µM | M14 > 100 µM | SK-MEL-5 > 100 µM | NCI-H460 > 100 µM | SK-MEL-28 > 100 µM

C/C(=N\NC(N)=O)c1sc(-c2nc(C)c(/C(C)=N/NC(N)=O)s2)nc1C
inactive: OVCAR-5 > 100 µM | HL-60 40 µM | A498 > 100 µM | SN12C > 100 µM | KM12 > 100 µM | ACHN > 100 µM | SK-OV-3 > 100 µM | CAKI-1 > 100 µM | OVCAR-8 > 100 µM | SF-268 > 100 µM | SR 22.6 µM | UACC-62 > 100 µM | SF-295 > 100 µM | HT-29 > 100 µM | M14 > 100 µM | SK-MEL-5 > 100 µM | NCI-H460 78.7 µM | SK-MEL-28 > 100 µM

COc1ccccc1/C=C(\C#N)C(=O)c1ccccc1
inactive: OVCAR-5 > 100 µM | HL-60 > 100 µM | A498 > 100 µM | SN12C > 100 µM | KM12 > 100 µM | ACHN > 100 µM | SK-OV-3 > 100 µM | CAKI-1 > 100 µM | OVCAR-8 > 100 µM | SF-268 > 100 µM | SR > 100 µM | UACC-62 > 100 µM | SF-295 > 100 µM | HT-29 > 100 µM | M14 > 100 µM | SK-MEL-5 > 100 µM | NCI-H460 > 100 µM | SK-MEL-28 > 100 µM

Source: ChEMBL document CHEMBL1201862, “PubChem BioAssay data set” (2004)
